# According to ChEMBL document CHEMBL1938378, “Synthesis and evaluation of tetrahedral intermediate mimic inhibitors of 3-deoxy-d-manno-octulosonate 8-phosphate synthase” (Bioorg Med Chem Lett, 2012):
# What was measured:
# [1] = target: 2-dehydro-3-deoxyphosphooctonate aldolase (Neisseria meningitidis serogroup B (strain MC58), UniProt Q9JZ55); test: Competitive inhibition of Neisseria meningitidis serotype B strain MC58 ATCC BAA355 KDO8P synthase expressed in Escherichia coli BL21 (DE3) cells using PEP as substrate after 10 to 15 mins by Michaelis-Menten equation
# Chain of 2-dehydro-3-deoxyphosphooctonate aldolase (Q9JZ55 whole entry): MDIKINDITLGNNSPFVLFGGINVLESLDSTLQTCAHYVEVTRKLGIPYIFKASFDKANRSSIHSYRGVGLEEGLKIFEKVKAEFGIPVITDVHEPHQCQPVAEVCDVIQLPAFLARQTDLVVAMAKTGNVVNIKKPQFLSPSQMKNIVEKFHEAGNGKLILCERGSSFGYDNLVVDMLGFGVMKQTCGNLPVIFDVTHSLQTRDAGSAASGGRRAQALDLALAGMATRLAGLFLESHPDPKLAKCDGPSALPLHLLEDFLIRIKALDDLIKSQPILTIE
# [2] = Competitive inhibition of Acidithiobacillus ferrooxidans KDO8P synthase using PEP as substrate after 10 to 15 mins by Michaelis-Menten equation
# [3] = Inhibition of Helicobacter pylori KDO8P
# [4] = Inhibition of Escherichia coli KDO8P
Structure (SMILES),Ki [1] [µM],Ki [2] [µM],IC50 [3] [µM],Ki [4] [µM]
C[C@H](OP(=O)(O)O)C(=O)O,1200,1000,–,–
O=C(O)C(CCCCCCO)OP(=O)(O)O (centres undefined),1000,540,–,–
O=C(O)CNCP(=O)(O)O [GLYPHOSATE],260,330,–,–
O=C(O)CN(C[C@@H](O)[C@@H](O)[C@H](O)[C@H](O)COP(=O)(O)O)CP(=O)(O)O,–,–,132,0.37

# Continued, in another order:
Ki [1] [µM],Ki [2] [µM],IC50 [3] [µM],Structure (SMILES),Ki [4] [µM]
870,390,–,C[C@@H](OP(=O)(O)O)C(=O)O,–
7.9,20,–,O=C(O)C(CCCCCCOP(=O)(O)O)OP(=O)(O)O (centres undefined),–
270,190,–,O=C(O)C(O)CCCCCCOP(=O)(O)O (centres undefined),–
